The source of these data is paper doi:10.1101/2025.03.03.641126v1 (bioRxiv, 2025).

The test system of the experiment is Panc354 and MetPO1 cells. Briefly: Flow cytometry for CD133 after combination treatment. It counts as cell-based, human. The following applies: representative cytometry plot, JM#21 10μM, Gem 1μM.

For `Nc1ccn([C@@H]2O[C@H](CO)[C@@H](O)C2(F)F)c(=O)n1` [gemcitabine], the “CD133 - PE positive cells” value is on record as 14.5%.
